Experimental data reported in article PMC6779124 (ACS infectious diseases, 2018).

Biological target: Stk1 kinase domain (Staphylococcus aureus, UniProt A0A0H2XGG5)
Assay: […]-ATP autoradiography, autophosphorylation and MBP phosphorylation
Assay type: biochemical
Conditions: […] kinase domain, […] MBP, […] ATP, […] MnCl2, pH […] °C

Row | Structure (SMILES) | 32P-ATP autoradiography, autophosphorylation and MBP phosphorylation (inhibitor […]) | 32P-ATP autoradiography, autophosphorylation and MBP phosphorylation
1 | CN1CCN(c2ccc(Nc3nccc(-c4cnn5ncccc45)n3)cc2F)CC1 [CAF052, N-(3-Fluoro-4-(4-methylpiperazin-1-yl)phenyl)-4-(pyrazolo[1,5-b]pyridazin-3-yl)pyrimidin-2-amine] | CAF052 and CAF078 robustly inhibited Stk1 kinase activity like the GW779439X control | –
2 | CN1CCN(c2ccc(Nc3nccc(-c4cnn5ncccc45)n3)cc2)CC1 [CAF045, N-(4-(4-Methylpiperazin-1-yl)phenyl)-4-(pyrazolo-[1,5-b]pyridazin-3-yl)pyrimidin-2-amine] | – | CAF045 and CAF077, displayed an intermediate phenotype with partial Stk1 inhibition
3 | CN1CCN(c2cccc(Nc3nccc(-c4cnn5ncccc45)n3)c2)CC1 [CAF077, N-(3-(4-Methylpiperazin-1-yl)phenyl)-4-(pyrazolo-[1,5-b]pyridazin-3-yl)pyrimidin-2-amine] | – | CAF045 and CAF077, displayed an intermediate phenotype with partial Stk1 inhibition
4 | CN1CCN(c2ccc(Nc3nccc(-c4cnn5ncccc45)n3)cc2C#N)CC1 [CAF078, 2-(4-Methylpiperazin-1-yl)-5-((4-(pyrazolo-[1,5-b]-pyridazin-3-yl)pyrimidin-2-yl)amino)benzonitrile] | – | CAF052 and CAF078 robustly inhibited Stk1 kinase activity like the GW779439X control
